Experiments:
[1] = system: Tyrosine-protein kinase JAK2 (Homo sapiens), O60674 [V617F]; experiment: JAK2 JH1 JH2 V617F Kinase screen; settings: Compound concentration 1.0 uM
[2] = target: Angiopoietin-1 receptor (Homo sapiens) (UniProt Q02763); experiment: TEK (Tie2) Kinase screen; settings: Compound concentration 1.0 uM
[3] = target: Macrophage-stimulating protein receptor (Homo sapiens) (UniProt Q04912); experiment: MST1R (RON) Kinase screen; settings: Compound concentration 1.0 uM
[4] = target: Myosin light chain kinase 2, skeletal/cardiac muscle (Homo sapiens) (UniProt Q9H1R3); experiment: MYLK2 (skMLCK) Kinase screen; settings: Compound concentration 1.0 uM
[5] = target: Casein kinase II subunit alpha (Homo sapiens) (UniProt P68400); experiment: CSNK2A1 (CK2 alpha 1) Kinase screen; settings: Compound concentration 1.0 uM
[6] = target: Mitogen-activated protein kinase kinase kinase 11 (Homo sapiens) (UniProt Q16584); experiment: MAP3K11 (MLK3) Kinase screen; settings: Compound concentration 1.0 uM
[7] = target: T1, Tyrosine-protein kinase TXK (Homo sapiens) (UniProt P42681); experiment: TXK Kinase screen; settings: Compound concentration 1.0 uM
T1 sequence (whole entry): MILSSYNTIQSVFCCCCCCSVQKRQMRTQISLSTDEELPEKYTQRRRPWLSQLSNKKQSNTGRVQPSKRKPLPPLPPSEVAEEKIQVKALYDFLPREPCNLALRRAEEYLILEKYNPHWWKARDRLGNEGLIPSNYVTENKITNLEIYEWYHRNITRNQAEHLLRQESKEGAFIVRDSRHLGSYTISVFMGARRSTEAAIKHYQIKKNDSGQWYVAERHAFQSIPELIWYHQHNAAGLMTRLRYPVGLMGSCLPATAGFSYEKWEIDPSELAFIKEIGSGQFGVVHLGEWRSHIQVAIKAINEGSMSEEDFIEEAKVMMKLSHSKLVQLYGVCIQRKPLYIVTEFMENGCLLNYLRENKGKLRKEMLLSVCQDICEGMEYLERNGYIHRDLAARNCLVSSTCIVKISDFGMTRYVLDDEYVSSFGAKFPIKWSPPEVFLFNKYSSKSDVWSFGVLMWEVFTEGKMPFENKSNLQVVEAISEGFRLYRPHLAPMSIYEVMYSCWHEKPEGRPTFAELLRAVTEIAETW

[8] = target: Sodium-dependent serotonin transporter (Homo sapiens) (UniProt P31645); settings: Compound concentration 10.0 uM
[9] = target: T2, Cytoplasmic tyrosine-protein kinase BMX (Homo sapiens) (UniProt P51813); experiment: BMX Kinase screen; settings: Compound concentration 1.0 uM
T2 sequence (whole entry): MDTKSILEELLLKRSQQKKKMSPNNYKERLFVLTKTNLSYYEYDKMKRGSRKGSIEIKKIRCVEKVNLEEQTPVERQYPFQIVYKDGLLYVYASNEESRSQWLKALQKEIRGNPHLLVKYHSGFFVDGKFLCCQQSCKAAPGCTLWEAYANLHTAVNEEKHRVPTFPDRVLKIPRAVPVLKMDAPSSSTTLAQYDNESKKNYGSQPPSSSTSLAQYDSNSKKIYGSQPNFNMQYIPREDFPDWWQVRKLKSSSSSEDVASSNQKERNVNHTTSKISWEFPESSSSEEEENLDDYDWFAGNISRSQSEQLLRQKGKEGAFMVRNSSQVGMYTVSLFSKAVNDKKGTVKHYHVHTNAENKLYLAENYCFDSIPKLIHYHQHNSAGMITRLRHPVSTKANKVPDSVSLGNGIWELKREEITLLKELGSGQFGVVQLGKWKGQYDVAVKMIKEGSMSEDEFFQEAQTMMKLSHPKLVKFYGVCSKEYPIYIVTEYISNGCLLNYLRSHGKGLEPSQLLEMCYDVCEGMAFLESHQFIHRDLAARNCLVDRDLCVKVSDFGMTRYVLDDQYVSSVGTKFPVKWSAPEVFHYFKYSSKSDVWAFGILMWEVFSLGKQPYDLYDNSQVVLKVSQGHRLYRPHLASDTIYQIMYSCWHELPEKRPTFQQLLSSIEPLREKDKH

[10] = target: Wee1-like protein kinase (Homo sapiens) (UniProt P30291); experiment: WEE1 Kinase screen; settings: Compound concentration 1.0 uM
[11] = target: Casein kinase I isoform gamma-2 (Homo sapiens) (UniProt P78368); experiment: CSNK1G2 (CK1 gamma 2) Kinase screen; settings: Compound concentration 1.0 uM
[12] = target: Hepatocyte growth factor receptor (Homo sapiens) (UniProt P08581); experiment: MET (cMet) Kinase screen; settings: Compound concentration 1.0 uM
[13] = target: T3, Ephrin type-A receptor 3 (Homo sapiens) (UniProt P29320); experiment: EPHA3 Kinase screen; settings: Compound concentration 1.0 uM
T3 sequence (whole entry): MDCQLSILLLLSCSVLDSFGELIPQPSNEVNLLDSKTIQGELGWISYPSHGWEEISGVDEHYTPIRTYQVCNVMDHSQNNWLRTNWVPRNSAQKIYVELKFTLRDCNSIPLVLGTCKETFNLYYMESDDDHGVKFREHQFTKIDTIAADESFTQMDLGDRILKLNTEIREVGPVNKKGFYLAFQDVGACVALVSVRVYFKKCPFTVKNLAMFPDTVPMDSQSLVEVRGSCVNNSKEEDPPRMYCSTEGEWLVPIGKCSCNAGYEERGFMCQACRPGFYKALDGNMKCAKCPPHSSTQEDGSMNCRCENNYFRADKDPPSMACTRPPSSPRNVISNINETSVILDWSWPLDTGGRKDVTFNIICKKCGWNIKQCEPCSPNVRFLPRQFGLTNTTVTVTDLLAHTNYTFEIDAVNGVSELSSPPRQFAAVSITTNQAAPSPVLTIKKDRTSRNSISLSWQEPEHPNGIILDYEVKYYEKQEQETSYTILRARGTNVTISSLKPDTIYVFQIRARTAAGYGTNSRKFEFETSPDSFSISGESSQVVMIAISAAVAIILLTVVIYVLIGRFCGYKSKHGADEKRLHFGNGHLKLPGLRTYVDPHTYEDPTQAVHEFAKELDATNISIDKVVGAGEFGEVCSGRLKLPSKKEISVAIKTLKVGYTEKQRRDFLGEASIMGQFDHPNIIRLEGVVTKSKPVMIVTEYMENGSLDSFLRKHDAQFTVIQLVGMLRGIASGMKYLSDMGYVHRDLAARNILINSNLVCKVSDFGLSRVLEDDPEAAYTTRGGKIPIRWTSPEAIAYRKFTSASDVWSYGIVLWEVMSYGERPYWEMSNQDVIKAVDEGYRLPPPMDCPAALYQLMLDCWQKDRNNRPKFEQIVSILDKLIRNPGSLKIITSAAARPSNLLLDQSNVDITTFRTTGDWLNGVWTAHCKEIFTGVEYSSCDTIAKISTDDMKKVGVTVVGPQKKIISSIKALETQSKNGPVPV

Measured: inhibition

Sequence of Macrophage-stimulating protein receptor (Homo sapiens) (Q04912 25-304 limits assumed): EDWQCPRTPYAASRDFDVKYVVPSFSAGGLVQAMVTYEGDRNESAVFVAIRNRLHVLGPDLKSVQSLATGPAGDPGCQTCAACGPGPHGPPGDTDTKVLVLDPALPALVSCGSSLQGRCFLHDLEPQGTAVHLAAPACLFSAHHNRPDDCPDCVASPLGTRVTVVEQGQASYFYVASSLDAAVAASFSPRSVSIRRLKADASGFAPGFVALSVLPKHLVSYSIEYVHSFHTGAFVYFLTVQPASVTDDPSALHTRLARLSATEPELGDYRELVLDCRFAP
Sequence of Macrophage-stimulating protein receptor (Homo sapiens) (Q04912 310-1400 limits assumed): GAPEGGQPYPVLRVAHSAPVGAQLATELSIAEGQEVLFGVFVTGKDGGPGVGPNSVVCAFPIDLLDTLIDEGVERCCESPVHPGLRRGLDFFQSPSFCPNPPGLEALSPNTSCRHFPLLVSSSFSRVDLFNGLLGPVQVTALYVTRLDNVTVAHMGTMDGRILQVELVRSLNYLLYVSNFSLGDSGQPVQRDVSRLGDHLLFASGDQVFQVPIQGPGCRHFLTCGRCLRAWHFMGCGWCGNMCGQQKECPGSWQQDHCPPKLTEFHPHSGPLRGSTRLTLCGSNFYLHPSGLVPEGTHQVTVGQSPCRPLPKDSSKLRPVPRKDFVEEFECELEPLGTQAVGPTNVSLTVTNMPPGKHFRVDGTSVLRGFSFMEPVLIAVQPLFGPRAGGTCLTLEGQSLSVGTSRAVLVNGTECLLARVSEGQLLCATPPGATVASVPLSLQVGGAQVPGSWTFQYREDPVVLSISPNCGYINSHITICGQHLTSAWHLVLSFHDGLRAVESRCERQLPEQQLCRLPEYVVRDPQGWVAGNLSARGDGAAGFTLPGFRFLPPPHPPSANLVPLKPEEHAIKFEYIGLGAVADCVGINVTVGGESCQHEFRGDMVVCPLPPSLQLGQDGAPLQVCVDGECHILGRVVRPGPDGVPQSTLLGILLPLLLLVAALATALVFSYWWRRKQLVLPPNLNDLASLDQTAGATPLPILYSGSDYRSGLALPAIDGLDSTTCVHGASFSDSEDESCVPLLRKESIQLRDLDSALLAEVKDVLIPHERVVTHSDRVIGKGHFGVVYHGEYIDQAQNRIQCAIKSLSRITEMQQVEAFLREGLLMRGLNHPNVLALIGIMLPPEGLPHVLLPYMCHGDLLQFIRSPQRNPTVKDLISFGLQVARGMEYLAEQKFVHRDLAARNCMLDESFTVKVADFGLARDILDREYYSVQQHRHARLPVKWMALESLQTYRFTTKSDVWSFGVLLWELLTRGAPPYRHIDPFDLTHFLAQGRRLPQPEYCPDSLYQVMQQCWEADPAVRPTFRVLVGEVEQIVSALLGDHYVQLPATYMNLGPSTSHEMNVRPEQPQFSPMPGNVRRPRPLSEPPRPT
Sequence of Tyrosine-protein kinase JAK2 (Homo sapiens), O60674 [V617F] (O60674 whole entry V617F): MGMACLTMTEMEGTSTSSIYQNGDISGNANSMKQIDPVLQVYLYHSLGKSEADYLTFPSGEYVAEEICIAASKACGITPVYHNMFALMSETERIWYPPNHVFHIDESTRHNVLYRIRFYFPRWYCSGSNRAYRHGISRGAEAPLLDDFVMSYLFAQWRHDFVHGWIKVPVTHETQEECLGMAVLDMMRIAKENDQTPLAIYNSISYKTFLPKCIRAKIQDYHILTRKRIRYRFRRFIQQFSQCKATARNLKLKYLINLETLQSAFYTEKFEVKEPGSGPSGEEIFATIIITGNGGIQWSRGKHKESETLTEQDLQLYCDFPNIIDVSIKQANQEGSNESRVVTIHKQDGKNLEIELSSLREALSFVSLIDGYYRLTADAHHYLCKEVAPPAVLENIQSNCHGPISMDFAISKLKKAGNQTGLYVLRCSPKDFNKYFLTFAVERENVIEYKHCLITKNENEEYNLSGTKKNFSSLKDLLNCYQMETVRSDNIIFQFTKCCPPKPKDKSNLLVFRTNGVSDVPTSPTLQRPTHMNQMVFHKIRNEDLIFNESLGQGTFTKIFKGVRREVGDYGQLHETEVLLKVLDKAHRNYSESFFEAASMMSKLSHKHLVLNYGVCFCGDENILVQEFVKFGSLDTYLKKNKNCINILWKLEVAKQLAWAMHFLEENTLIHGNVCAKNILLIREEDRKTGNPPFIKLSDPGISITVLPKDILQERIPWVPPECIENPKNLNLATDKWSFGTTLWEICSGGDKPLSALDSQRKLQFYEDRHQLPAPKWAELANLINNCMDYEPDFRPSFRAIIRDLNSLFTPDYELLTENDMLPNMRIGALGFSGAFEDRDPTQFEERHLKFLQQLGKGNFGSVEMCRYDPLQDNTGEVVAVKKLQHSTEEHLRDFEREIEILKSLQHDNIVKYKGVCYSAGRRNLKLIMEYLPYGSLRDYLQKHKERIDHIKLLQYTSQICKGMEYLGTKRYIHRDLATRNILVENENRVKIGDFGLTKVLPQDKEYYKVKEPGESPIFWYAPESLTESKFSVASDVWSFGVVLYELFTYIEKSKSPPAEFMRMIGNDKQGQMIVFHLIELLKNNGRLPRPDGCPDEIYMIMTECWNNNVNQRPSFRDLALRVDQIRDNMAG
Sequence of Sodium-dependent serotonin transporter (Homo sapiens) (P31645 whole entry, looked up): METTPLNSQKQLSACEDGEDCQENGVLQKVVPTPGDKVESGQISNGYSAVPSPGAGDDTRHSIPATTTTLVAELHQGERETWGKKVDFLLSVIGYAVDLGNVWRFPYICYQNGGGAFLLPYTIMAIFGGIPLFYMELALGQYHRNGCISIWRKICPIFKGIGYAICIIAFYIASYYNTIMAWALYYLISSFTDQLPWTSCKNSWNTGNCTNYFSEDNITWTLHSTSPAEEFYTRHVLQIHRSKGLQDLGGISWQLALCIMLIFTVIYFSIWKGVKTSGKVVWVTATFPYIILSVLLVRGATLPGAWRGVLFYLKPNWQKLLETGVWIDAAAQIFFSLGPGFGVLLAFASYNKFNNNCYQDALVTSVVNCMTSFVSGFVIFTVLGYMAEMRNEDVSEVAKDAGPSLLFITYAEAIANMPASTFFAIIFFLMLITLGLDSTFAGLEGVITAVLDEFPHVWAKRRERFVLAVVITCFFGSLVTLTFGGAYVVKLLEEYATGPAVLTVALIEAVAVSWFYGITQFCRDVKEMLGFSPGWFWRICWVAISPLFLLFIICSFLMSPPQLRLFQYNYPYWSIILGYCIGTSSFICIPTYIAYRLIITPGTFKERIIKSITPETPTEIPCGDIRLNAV
Sequence of Hepatocyte growth factor receptor (Homo sapiens) (P08581 whole entry): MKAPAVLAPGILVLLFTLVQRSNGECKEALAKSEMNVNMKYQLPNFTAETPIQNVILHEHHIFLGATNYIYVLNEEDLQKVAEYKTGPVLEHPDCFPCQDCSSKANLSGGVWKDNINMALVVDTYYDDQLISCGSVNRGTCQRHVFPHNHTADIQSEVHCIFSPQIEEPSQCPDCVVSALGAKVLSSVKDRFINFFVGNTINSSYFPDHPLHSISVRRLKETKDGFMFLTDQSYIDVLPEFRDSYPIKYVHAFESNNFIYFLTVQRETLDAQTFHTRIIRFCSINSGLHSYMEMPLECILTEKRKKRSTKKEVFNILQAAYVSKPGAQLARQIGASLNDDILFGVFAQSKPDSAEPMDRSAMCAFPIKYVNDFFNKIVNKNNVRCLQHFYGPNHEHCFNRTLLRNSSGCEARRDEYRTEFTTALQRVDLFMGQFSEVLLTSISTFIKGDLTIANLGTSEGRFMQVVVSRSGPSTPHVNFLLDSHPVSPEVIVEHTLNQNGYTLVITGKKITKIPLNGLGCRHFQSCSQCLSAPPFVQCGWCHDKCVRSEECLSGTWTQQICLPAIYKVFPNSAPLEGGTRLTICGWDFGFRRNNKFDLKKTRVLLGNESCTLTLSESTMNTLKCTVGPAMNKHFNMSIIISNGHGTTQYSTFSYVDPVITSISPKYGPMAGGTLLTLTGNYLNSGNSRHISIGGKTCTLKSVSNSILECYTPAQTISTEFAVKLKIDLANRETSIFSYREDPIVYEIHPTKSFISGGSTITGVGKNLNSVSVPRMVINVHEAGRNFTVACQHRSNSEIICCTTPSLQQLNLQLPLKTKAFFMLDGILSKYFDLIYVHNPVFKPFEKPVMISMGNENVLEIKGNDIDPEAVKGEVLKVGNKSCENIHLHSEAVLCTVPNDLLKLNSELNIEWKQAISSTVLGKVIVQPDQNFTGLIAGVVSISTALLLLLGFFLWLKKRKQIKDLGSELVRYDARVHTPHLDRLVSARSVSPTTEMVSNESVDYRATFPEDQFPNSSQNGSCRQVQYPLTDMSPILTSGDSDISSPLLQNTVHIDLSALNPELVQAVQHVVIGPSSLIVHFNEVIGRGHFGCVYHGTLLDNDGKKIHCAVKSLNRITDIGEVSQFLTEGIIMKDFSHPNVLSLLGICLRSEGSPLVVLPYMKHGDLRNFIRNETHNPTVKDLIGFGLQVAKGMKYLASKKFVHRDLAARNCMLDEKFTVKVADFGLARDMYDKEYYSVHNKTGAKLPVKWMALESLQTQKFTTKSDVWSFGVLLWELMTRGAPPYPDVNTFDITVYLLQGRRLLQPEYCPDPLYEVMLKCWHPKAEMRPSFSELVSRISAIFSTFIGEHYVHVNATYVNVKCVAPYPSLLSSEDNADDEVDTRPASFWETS
Sequence of Casein kinase I isoform gamma-2 (Homo sapiens) (P78368 whole entry, looked up, canonical isoform): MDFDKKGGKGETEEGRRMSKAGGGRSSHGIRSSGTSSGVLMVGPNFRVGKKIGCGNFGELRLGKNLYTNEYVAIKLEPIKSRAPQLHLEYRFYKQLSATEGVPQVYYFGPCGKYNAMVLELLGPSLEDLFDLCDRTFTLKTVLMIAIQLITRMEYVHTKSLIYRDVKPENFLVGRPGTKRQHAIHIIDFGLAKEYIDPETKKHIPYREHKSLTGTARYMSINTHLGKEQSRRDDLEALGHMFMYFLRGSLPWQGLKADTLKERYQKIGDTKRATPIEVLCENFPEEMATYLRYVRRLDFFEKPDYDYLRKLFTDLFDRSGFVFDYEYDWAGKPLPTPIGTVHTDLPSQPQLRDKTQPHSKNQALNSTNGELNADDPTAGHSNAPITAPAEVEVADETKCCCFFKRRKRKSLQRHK

C[C@@H]1CN(c2cc(-c3n[nH]c4ccc(OC5(C)CC5)cc34)ncn2)C[C@H](C)O1 [MLi-2]
inactive: [1] -7.77% | [2] 2.36% | [3] 1.51% | [4] 1.42% | [5] 3.5% | [6] -3.69% | [7] 3.11% | [8] 2% | [9] 14% | [10] 3% | [11] 2.4% | [12] 5.51% | [13] -3.28%
